Reference: US20130034522A1, “THERAPIES FOR TREATING HEPATITIS C VIRUS INFECTION” (priority 2010, published 2013)
Values joined by “and” are separate entries in the source; they are usually repeats but may differ in a detail not shown here. Equal values may be shown once.

Key:
[1] = Study VX-222-002: combination treatment with VX-222 and VX-950 in healthy subjects (PK, safety); conditions: for AUC(0-t) / Cmax / half-life: human, plasma, oral; for AUC(0-t) / Cmax: geometric mean (CV %)
[2] = test system: genotype 1 chronic hepatitis C infection; experiment: Study 101 Part C: pharmacodynamics of VX-222 (HCV plasma RNA); format: in vivo, Hepatitis C virus; conditions: 750 mg b.i.d. for 3 consecutive days, treatment-naïve genotype 1 subjects
Description: In Part C of Study 101, VX-222 was administered as multiple doses of 750 mg b.i.d. to treatment-naïve subjects with chronic hepatitis C for 3 days. In addition, in Part A of Study 102, VX-222 was administered as multiple doses ranging from 250 mg to 750 mg BID and 1500 mg once a day to treatment-naïve subjects with chronic hepatitis C for 3 days. A primary objective of Part C of Study 101 was to assess the pharmacodynamics of VX-222 in treatment-naïve subjects with genotype 1 chronic hepatitis C infection. The final pharmacodynamic parameters of VX-222 administered at 750 mg b.i.d. for 3 consecutive days are outlined below: • The mean untransformed baseline (Day 1) HCV plasma RNA level was 4962600 IU/mL (log10=6.4927). • The mean maximum reduction from baseline calculated using the log10 predose HCV plasma RNA on Days 2 to 4 was −3.6784. The correlation between the predose RNA levels and the amplitude of the reduction in log 10 HCV RNA was relatively weak.

Huh-7, ET replicon cells = experiment: Drug combination luciferase assay (4-day, MacSynergy); format: cell-based, Hepatitis C virus; conditions: combination with VX-950, 4 days
From the text: Replicon cell lines Huh-7, ET cells derived from the Huh-7 hepatocarcinoma cell line are obtained from Dr. Ralf Bartenschlager (Bartenschlager, R. Innovation: Hepatitis C virus replicons: potential role for drug development. Nat. Rev. Drug Discov. 2002, 1, 911-916. Krieger, N.; Lohmann, V.; Bartenschlager, R. Enhancement of hepatitis C virus RNA replication by cell culture-adaptive mutations. J. Virol. 2001, 75, 4614-4624. Lohmann, V.; Korner, F.; Koch, J.-O.; Herian, U.; Theilmann, L.; Bartenschlager, R. Replication of subgenomic hepatitis C virus RNAs in a hepatoma cell line. Science. 1999, 285, 110-113.) (Reblikon GmbH, Gau-Odernheim, Germany). […]
Huh-7, ET replicon cells are seeded in white opaque 96-well cell culture microtiter plates at sub-confluent density (3×10^3 cells per well) in a volume of 100 μL media. […] Plates are read for Luciferase counts using a luminometer (Wallac MicroBeta Trilux, Perkin Elmer™, MA, USA). […]

[3] = VX-222 400 mg BID with VX-950 1125 mg BID, Day 37, healthy subjects, fed

In the case of `CC1CCC(C(=O)N(c2cc(C#CC(C)(C)C)sc2C(=O)O)C2CCC(O)CC2)CC1` (stereo not drawn) [VX-222, 5-(3,3-Dimethylbut-1-ynyl)-3-[(trans-4-hydroxycyclohexyl)-(4-trans methylcyclohexanecarbonyl)amino]thiophene-2-carboxylic acid], the Tmax [1, 3] is reported as 4 [4,6] hr, the VX-222 plasma exposures ([1]; co-administered with VX-950, healthy subjects) is reported as “increased” and the “VX-222 administered with VX-950 versus VX-222 alone” value ([1]; healthy subjects) is reported as 2 fold. The AUC(0-t) ([1]; 400 mg, AUC0-12, VX-222 400 mg BID alone, Day 10, healthy subjects, fed) was 8560 ng·h/mL, the Cmax ([1]; 400 mg, VX-222 400 mg BID alone, Day 10, healthy subjects, fed) was 1770 ng/mL and the half-life ([1]; 400 mg, T1/2, VX-222 400 mg BID alone, Day 10, healthy subjects, fed) was 2.7 h. The AUC(0-t) ([1]; 1000 mg, AUC0-12, VX-222 1000 mg BID alone, Day 10, healthy subjects, fed) was 25800 ng·h/mL, the Cmax ([1]; 1000 mg, VX-222 1000 mg BID alone, Day 10, healthy subjects, fed) was 4120 ng/mL and the half-life ([1]; 1000 mg, T1/2, VX-222 1000 mg BID alone, Day 10, healthy subjects, fed) was 4 h. It also gave an AUC(0-t) ([1]; AUC0-12, VX-222 400 mg BID with VX-950 1125 mg BID, Day 37, healthy subjects, fed) of 29500 ng·h/mL, an AUC(0-t) ([1]; AUC0-12, VX-222 1000 mg BID with VX-950 1125 mg BID, Day 37, healthy subjects, fed) of 59900 ng·h/mL and a Cmax [1, 3] of 3950 ng/mL. It also gave a Cmax ([1]; VX-222 1000 mg BID with VX-950 1125 mg BID, Day 37, healthy subjects, fed) of 8150 ng/mL, a half-life ([1]; T1/2, VX-222 400 mg BID with VX-950 1125 mg BID, Day 37, healthy subjects, fed) of 5.4 h and a half-life ([1]; T1/2, VX-222 1000 mg BID with VX-950 1125 mg BID, Day 37, healthy subjects, fed) of 3.5 h. For the same compound, the “mean maximum reduction from baseline, log10 predose HCV plasma RNA on Days 2 to 4” value [2] was −3.6784, the “Results VX-950 (synergy class)” value (Huh-7, ET replicon cells) was “Moderated synergy (50 uM^2%-100 uM^2%)” and the volume of synergy (Huh-7, ET replicon cells; listed as 1) was 90 uM^2% and 86 uM^2%. For the same compound, the “in vitro IC90” value (in vitro IC90 of VX-222) was 0.319 µg/mL.
